Test results reported in ChEMBL document CHEMBL5506012, “Targeting Myeloid Leukemia-1 in Cancer Therapy: Advances and Directions” (J Med Chem, 2024).
Values belong to the compound of their own block, whether it stands above or below them.

Legend:
[1] = target: T1, Induced myeloid leukemia cell differentiation protein Mcl-1 (Homo sapiens, UniProt Q07820); test: Inhibition of human recombinant Mcl-1 by Surface Plasmon Resonance assay
[2] = target: T1, Induced myeloid leukemia cell differentiation protein Mcl-1; test: Binding affinity to N-terminal His-tagged human recombinant Mcl-1 (172 to 327 residues) expressed in Escherichia coli BL21 (DE3) assessed as inhibition constant
OCI-AML-5 = test: Antiproliferative activity against human OCI-AML5 cells assessed as reduction in cell viability incubated for 48 hrs by MTT assay; settings: OCI-AML-5, 48 h
[3] = target: T2, Apoptosis regulator Bcl-2 (Homo sapiens, UniProt P10415); test: Binding affinity to human Bcl-2 assessed as inhibition constant SPR assay
NCI-H929 [4] = test: Antiproliferative activity against human NCI-H929 cells assessed as reduction in cell viability; assay type: functional, cell-based
MV4-11 [5] = test: animal or person; settings: Mus musculus, MV4-11, po, 120 h, read-out: TGI
Description: Antitumor activity against human MV4-11 cells xenografted in C57BL/6 mouse assessed as tumor growth inhibition at 12.5 mg/kg, po administered once daily for 5 days relative to control

HL-60 = test: Growth inhibition of human HL-60 cells incubated for 48 hrs by cell-titer Glo reagent based assay; assay type: functional
MV4-11 [6] = test: cells; settings: Homo sapiens, MV4-11, 48 h
Description: Growth inhibition of human MV4-11 cells incubated for 48 hrs by cell-titer Glo reagent based assay

HCC1187 = test: Growth inhibition of human HCC1187
MOLM-13 [7] = test: Growth inhibition of human MOLM-13 cells incubated for 48 hrs by cell-titer Glo reagent based assay; assay type: functional
BC = test: Growth inhibition of human BC cells; assay type: functional
MV4-11 [8] = test: Antitumor activity against human MV4-11 cells xenografted in SCID mouse assessed as inhibition of tumor growth at 100 mg/kg administered for 14 days consecutively relative to control; assay type: functional; settings: MV4-11, 336 h, time 14 day, read-out: TGI
THP-1 = test: Growth inhibition of human THP-1 cells incubated for 48 hrs by cell-titer Glo reagent based assay; assay type: functional
[9] = target: T1, Induced myeloid leukemia cell differentiation protein Mcl-1; test: Binding affinity to human Mcl-1 assessed as dissociation constant by Surface Plasmon Resonance assay
[10] = target: T1, Induced myeloid leukemia cell differentiation protein Mcl-1; test: Binding affinity to Mcl-1 (unknown origin) assessed as inhibition constant by Fluorescence polarization assay
NCI-H522 = test: Antiproliferative activity against human NCI-H522 cells assessed as reduction in cell viability incubated for 48 hrs by MTT assay; assay type: functional, cell-based; settings: NCI-H522, 48 h
AMO1 [11] = test: Antiproliferative activity against human AMO1 cells assessed as reduction in cell viability; assay type: functional, cell-based
SK-MEL-2 = test: Antiproliferative activity against human SK-MEL-2 cells assessed as reduction in cell viability incubated for 48 hrs by MTT assay; assay type: functional, cell-based; settings: SK-MEL-2, 48 h
MV4-11 [12] = test: Antiproliferative activity against human MV4-11 cells assessed as reduction in cell viability; assay type: functional, cell-based
SK-BR-3 = test: Antiproliferative activity against human SK-BR-3 cells assessed as reduction in cell viability incubated for 48 hrs by MTT assay; assay type: functional, cell-based; settings: SK-BR-3, 48 h
NCI-H929 [13] = test: Antitumor activity against human NCI-H929 cells xenografted in mouse model assessed as tumor growth inhibition at 25 mg/kg administered for 5 days relative to control; assay type: functional; settings: NCI-H929, 120 h, time 5 day, read-out: TGI
AMO1 [14] = test: Antitumor activity against human AMO1 cells xenografted in mouse model assessed as tumor growth inhibition at 6.25 mg/kg administered for 5 days relative to control; assay type: functional; settings: AMO1, 120 h, time 5 day, read-out: TGI
AMO1 [15] = test: Antitumor activity against human AMO1 cells xenografted in mouse model assessed as tumor growth inhibition at 25 mg/kg administered for 5 days relative to control; assay type: functional; settings: AMO1, 120 h, time 5 day, read-out: TGI
MV4-11 [16] = test: Induction of apoptosis in human MV4-11 cells; assay type: functional, cell-based
MOLM-13 [17] = test: Growth inhibition of human MOLM-13 cells by cell-titer Glo reagent based assay; assay type: functional
MOLP-8 [18] = test: Induction of apoptosis in human MOLP8 cells; assay type: functional, cell-based
Bcl-2-like protein 1 [19] = target: T3, Bcl-2-like protein 1 (Homo sapiens, UniProt Q07817); test: Binding affinity to Bcl-XL (unknown origin) assessed as inhibition constant by fluorescence polarization assay
EOL1 = test: Induction of apoptosis in human EOL1 cells; assay type: functional, cell-based
SUD4 = test: Induction of apoptosis in human SU-DHL-4 cells; assay type: functional, cell-based
[20] = target: T1, Induced myeloid leukemia cell differentiation protein Mcl-1; test: Binding affinity to human Mcl-1 assessed as inhibition constant
[21] = target: T2, Apoptosis regulator Bcl-2; test: Binding affinity to Bcl-2 (unknown origin) expressed in Escherichia coli BL21 (DE3) assessed as inhibition constant by fluorescence polarization assay
MOLM-13 [22] = test: Induction of apoptosis in human MOLM-13 cells; assay type: functional, cell-based
[23] = target: T1, Induced myeloid leukemia cell differentiation protein Mcl-1; test: Binding affinity to Mcl-1 (unknown origin) assessed as inhibition constant
[24] = target: T1, Induced myeloid leukemia cell differentiation protein Mcl-1; test: Inhibition of N-terminal GST-tagged human Mcl-1expressed in Escherichia coli by TR-FRET analysis
[25] = target: T1, Induced myeloid leukemia cell differentiation protein Mcl-1; test: Inhibition of Mcl-1 (unknown origin)
AMO1 [26] = test: Antitumor activity against human AMO1 cells xenografted in mouse model assessed as tumor growth inhibition at 12.5 mg/kg administered for 20 days relative to control; assay type: functional; settings: AMO1, 480 h, time 20 day, read-out: TGI
Bcl-2-related protein A1 = Bcl-2-related protein A1 (Homo sapiens, UniProt Q16548); test: Binding affinity to Bfl-1 (unknown origin) assessed as inhibition constant
Bcl-2-like protein 2 = Bcl-2-like protein 2 (Homo sapiens, UniProt Q92843); test: Binding affinity to Bcl-W (unknown origin) assessed as inhibition constant
[27] = target: T2, Apoptosis regulator Bcl-2; test: Binding affinity to Bcl-2 (unknown origin) assessed as inhibition constant
Bcl-2-like protein 1 [28] = target: T3, Bcl-2-like protein 1; test: Binding affinity to Bcl-xL (unknown origin) assessed as inhibition constant
NCI-H23 = test: Antiproliferative activity against human NCI-H23 cells assessed as reduction in cell viability incubated for 24 hrs by Celltiter-Glo reagent based assay; assay type: functional; settings: NCI-H23, 24 h
MV4-11 [29] = test: Antiproliferative activity against human MV4-11 cells assessed as reduction in cell viability incubated for 24 hrs by Celltiter-Glo reagent based assay; settings: MV4-11, 24 h
MOLP-8 [30] = test: Antiproliferative activity against human MOLP8 cells assessed as reduction in cell viability incubated for 24 hrs by Celltiter-Glo reagent based assay; settings: MOLP-8, 24 h
[31] = Oral bioavailability in CD-1 mouse at 10 mg/kg, […]; assay type: ADME, organism-based; settings: in vivo

T1 sequence (Q07820 whole entry, the tested form may be a part): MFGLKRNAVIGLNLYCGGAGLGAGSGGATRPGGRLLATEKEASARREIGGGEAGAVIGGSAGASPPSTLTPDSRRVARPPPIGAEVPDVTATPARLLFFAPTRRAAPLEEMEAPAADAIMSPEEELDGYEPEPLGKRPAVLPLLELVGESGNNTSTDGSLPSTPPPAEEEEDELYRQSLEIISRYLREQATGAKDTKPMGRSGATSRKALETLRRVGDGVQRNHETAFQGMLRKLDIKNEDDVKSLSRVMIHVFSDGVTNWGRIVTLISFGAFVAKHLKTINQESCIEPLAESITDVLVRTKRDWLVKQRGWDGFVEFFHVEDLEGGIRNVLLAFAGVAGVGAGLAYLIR
T2 sequence (P10415 whole entry): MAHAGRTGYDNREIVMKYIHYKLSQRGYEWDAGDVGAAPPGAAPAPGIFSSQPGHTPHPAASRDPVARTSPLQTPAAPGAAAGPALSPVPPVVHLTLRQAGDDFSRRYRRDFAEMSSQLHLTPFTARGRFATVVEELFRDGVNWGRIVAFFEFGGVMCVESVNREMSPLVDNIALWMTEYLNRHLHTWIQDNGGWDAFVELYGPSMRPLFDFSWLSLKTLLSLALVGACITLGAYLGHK
T3 sequence (Q07817 whole entry): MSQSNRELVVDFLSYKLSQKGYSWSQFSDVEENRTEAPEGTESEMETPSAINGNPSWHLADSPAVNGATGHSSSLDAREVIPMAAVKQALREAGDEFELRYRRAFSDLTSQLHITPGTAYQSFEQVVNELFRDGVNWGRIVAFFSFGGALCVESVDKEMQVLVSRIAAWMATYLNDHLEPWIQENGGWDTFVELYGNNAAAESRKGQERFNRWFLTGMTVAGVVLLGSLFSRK
Sequence of Bcl-2-related protein A1 (Q16548 whole entry): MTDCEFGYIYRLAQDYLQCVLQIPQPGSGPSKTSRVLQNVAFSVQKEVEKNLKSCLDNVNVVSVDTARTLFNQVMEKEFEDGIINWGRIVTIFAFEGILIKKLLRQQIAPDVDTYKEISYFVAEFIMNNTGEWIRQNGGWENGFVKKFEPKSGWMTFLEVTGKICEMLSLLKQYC
Sequence of Bcl-2-like protein 2 (Q92843 whole entry): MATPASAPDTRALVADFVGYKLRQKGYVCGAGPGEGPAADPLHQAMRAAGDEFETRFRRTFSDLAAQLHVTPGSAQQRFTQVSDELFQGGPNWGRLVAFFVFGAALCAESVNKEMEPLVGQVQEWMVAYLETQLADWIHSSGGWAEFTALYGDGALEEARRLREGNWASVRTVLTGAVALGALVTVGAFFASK

Structure (SMILES): Cc1cc(OCCC(=O)O)cc(C)c1Cl
Ki [2]: 68000 nM

Structure (SMILES): Cc1c(-c2c(-c3ccc(F)o3)sc3ncnc(O[C@H](Cc4ccccc4OCc4ccnn4CC(F)(F)F)C(=O)O)c23)ccc(OCCN2CCN(C)CC2)c1Cl
IC50 (OCI-AML-5): 4 nM
Ki [3]: > 10000 nM
EC50 (NCI-H929 [4]): < 10 nM
inhibition in vivo at 12.5 mg/kg (MV4-11 [5]): 86%

Structure (SMILES): Cc1cc(OCCCc2c3n(c4c(-c5c(C)nn(C)c5C)c(Cl)ccc24)[C@H](C)CN(c2cn(C)c4ccc(C(=O)O)cc24)C3=O)cc(C)c1Cl
GI50 (HL-60): 3710 nM
GI50 (MV4-11 [6]): 180 nM
GI50 (HCC1187): 2100 nM
GI50 (MOLM-13 [7]): 210 nM
GI50 (BC): 1300 nM
inhibition in vivo at 100 mg/kg (MV4-11 [8]): 60%
GI50 (THP-1): 490 nM

Structure (SMILES): CCc1sc2ncnc(N[C@@H](C)C(=O)O)c2c1CC
Kd [9]: 0.19 nM
Ki [10]: 1.2 nM

Structure (SMILES): COc1ccccc1-c1nccc(COc2ccccc2C[C@H](Oc2ncnc3sc(-c4ccc(F)cc4)c(-c4ccc(OCCN5CCN(C)CC5)c(Cl)c4C)c23)C(=O)O)n1
IC50 (NCI-H522): < 100 nM
EC50 (AMO1 [11]): 2.06 nM
IC50 (SK-MEL-2): < 100 nM
EC50 (MV4-11 [12]): 10.9 nM
IC50 (SK-BR-3): < 100 nM
EC50 (NCI-H929 [4]): 4.75 nM
inhibition in vivo at 25 mg/kg (NCI-H929 [13]): 103%
inhibition in vivo at 6.25 mg/kg (AMO1 [14]): 190%
inhibition in vivo at 25 mg/kg (AMO1 [15]): 114%

Structure (SMILES): CCC1CC/C=C/C(O)C2CCC2CN2CC3(CCc4cc(Cl)ccc43)COc3ccc(cc32)C(=O)NS1(=O)=O (stereo unspecified)
Ki [23]: 0.05 nM

Structure (SMILES): Cc1c(Cl)c2c(Cl)c(C)c1-c1c(-c3ccc(F)cc3)sc3ncnc(c13)O[C@@H](C(=O)O)Cc1cc(ccc1OCc1ccnc(-c3ccc(OC[C@@H]4COCCO4)cc3)n1)OC[C@@H](CN1CCN(C)CC1)O2
inhibition in vivo at 12.5 mg/kg (AMO1 [26]): 46%
EC50 (AMO1 [11]): 0.16 nM
EC50 (MV4-11 [12]): 3.91 nM
Ki (Bcl-2-related protein A1): > 468 nM
Ki (Bcl-2-like protein 2): > 468 nM
Ki [27]: 599 nM
EC50 (NCI-H929 [4]): 0.47 nM
Ki (Bcl-2-like protein 1 [28]): > 660 nM
Ki [23]: < 0.01 nM

Structure (SMILES): CO[C@]1(CN2CCN3CCCC[C@@H]3C2)/C=C/C[C@H](C)[C@@H](C)S(=O)(=O)NC(=O)c2ccc3c(c2)N(C[C@@H]2CC[C@H]21)C[C@@]1(CCCc2cc(Cl)ccc21)CO3 [MURIZATOCLAX]
EC50 (AMO1 [11]): 13.5 nM
EC50 (MV4-11 [12]): 43.6 nM
EC50 (NCI-H929 [4]): 13 nM

The next lines start with results.

IC50 [1]: 310 nM
Structure (SMILES): O=C(O)CSc1cc(NS(=O)(=O)c2ccc(Br)cc2)c2ccccc2c1O

GI50 (MOLM-13 [17]): 10 nM
Ki (Bcl-2-like protein 1 [19]): 5000 nM
Ki [20]: 0.006 nM
Ki [21]: 3750 nM
Structure (SMILES): COCCOCCn1nc(C)c2c1CSCc1cc(n(C)n1)CCc1cc(c3ccccc3c1)OCCCn1c(C(=O)O)c(C)c3c-2c(Cl)ccc31
AC50 (MV4-11 [16]): 14 nM
AC50 (MOLP-8 [18]): 8.7 nM
AC50 (EOL1): 2.1 nM
AC50 (SUD4): 21 nM
AC50 (MOLM-13 [22]): 10 nM

IC50 [24]: 42 nM
Structure (SMILES): Cc1cc(SCc2nn(C)c(C)c2-c2cccc3c(CCCOc4cccc5ccccc45)c(C(=O)O)[nH]c23)nn1C

IC50 [25]: 300 nM
Structure (SMILES): O=C(NS(=O)(=O)Cc1ccccc1)c1ccc2c(c1)N(CC1CCC1)CC(c1ccc(Cl)cc1Cl)O2 (stereo unspecified)

IC50 [24]: 19 nM
Structure (SMILES): Cc1c2c(nn1C)CSCc1cc(n(C)n1)CCc1cc(c3ccccc3c1)OCCCc1c(C(=O)O)[nH]c3c-2cccc13

EC50 (NCI-H23): 190 nM
EC50 (MV4-11 [12]): 34.9 nM
EC50 (NCI-H929 [4]): 31.7 nM
EC50 (MV4-11 [29]): 24 nM
Structure (SMILES): Cc1c2c(nn1C)CSCc1cc(n(C)n1)CSc1cc(c3ccccc3c1)OCCCc1c(C(=O)O)n(C)c3c-2c(Cl)ccc13 [AZD-5991]
EC50 (AMO1 [11]): 22.9 nM
EC50 (MOLP-8 [30]): 33 nM

bioavailability [31]: 57%
Structure (SMILES): CC1(C)CCC(c2ccc(Cl)cc2)=C(CN2CCN(c3ccc(C(=O)NS(=O)(=O)c4ccc(N[C@H](CCN5CCOCC5)CSc5ccccc5)c(S(=O)(=O)C(F)(F)F)c4)cc3)CC2)C1 [NAVITOCLAX]
